Test results as given in patent US11717557B2, “Use of PRG4 as an anti-inflammatory agent” (Lubris LLC, priority 2015, dated 2023).

Columns and labels:
whole blood = test: Lubricin on TNF-α mediated inflammatory cytokine generation in whole blood; assay type: cell-based, human
Method: The effect of lubricin on TNF-α mediated inflammatory cytokine generation was studied using Biochip Array technology. Recombinant TNF-α was used as a trigger to generate inflammatory cytokines in whole blood. The effect of lubricin was studied on the TNF-α mediated generation of various cytokines. TNF-α alone at a concentration of […] was supplemented to the whole blood which was incubated for 60 minutes at 37° C. TNF-α was supplemented to whole blood in a 1:10 dilution. The modulatory effects of lubricin on TNF-α-mediated generation of various cytokines were studied by supplementing lubricin at 0.57 mg/mL in the whole blood immediately prior to addition of TNF-α. After 60 minutes plasma was obtained from centrifugation and analyzed for inflammatory cytokine using Randox Biochip arrays.

whole citrated blood [1] = test: Lubricin on LPS-mediated inflammatory cytokine generation in whole blood; assay type: cell-based, human; settings: LPS 10 ng/mL then lubricin 0.57 mg/mL, versus LPS alone
Method: The effect of lubricin on LPS-mediated inflammatory cytokine generation was studied using Biochip Array technology. In these studies LPS alone at 10 ng/mL and LPS pre-supplementation at 10 ng/mL followed by lubricin supplementation at 0.57 mg/mL were compared in the whole citrated blood for the generation of various inflammatory cytokines. All samples were incubated for 60 minutes and centrifuged to obtain plasma. This plasma was subsequently analyzed using the biochip array for inflammatory cytokines. LPS was supplemented to whole blood in a 1:10 dilution.

[2] = system: Rheumatoid arthritis fibroblast-like synoviocytes (RA-FLS); test: Cytokine-induced RA-FLS proliferation (MTS); assay type: cell-based; settings: 48 hours, p<0.05
Method: Rheumatoid arthritis fibroblast-like synoviocytes (RA-FLS; Cell Applications, USA) between 3rd and 6th passages were used to conduct these experiments. In sterile 96 well plates, RA-FLS (5,000 cells per well in 80 μL) were cultured in DMEM supplemented with 1% FBS and 1 mM pyruvate and stimulated with recombinant human interleukin-1 beta (IL-1β; R & D systems) at 20 ng/mL or tumor necrosis factor alpha (TNF-α; R & D systems) at 5 ng/mL for 48 hours at 37° C. in the absence or presence of rhPRG4 or HMW HA at a final concentration of 20, 40 or 80 μg/mL. The total volume in each well was 200 μL. Cell proliferation, an indication of inflammation, was determined using the CellTiter 96 AQueous one solution cell proliferation assay (MTS; Promega, USA) and the 490 nm absorbance was determined. Data is presented as the number of fold change in 490 nm absorbance compared to untreated control RA-FLS. The data represents the average of 3 independent experiments with at least triplicate wells per treatment. To evaluate the contribution of CD44 to the effect of rhPRG4 or HMW HA, RA-FLS were stimulated with IL-1β or TNF-α as described above. Treatment with rhPRG4 or HMW HA was conducted to a final concentration of 80 μg/mL in the absence or presence of IM7 (Abcam, USA), a CD44 neutralizing antibody that recognizes a conserved epitope across all CD44 isoforms (Samson et al., Exp Eye Res, 2014; 127C:14-19), at a final dilution of 1:200. The total volume in each well was 200 μl. Cell proliferation across the experimental groups was determined as described above and data is presented as the number of fold change in 490 nm absorbance compared to untreated control RA-FLS. The data represents the average of 3 independent experiments with at least triplicate wells per treatment.

traumatic brain injury = test: Traumatic brain injury model, controlled cortical impact, Western blotting of cerebral cortex; assay type: in vivo, rats
Method: Approximately one hour after traumatic brain injury to rats, using an established brain injury model involving a controlled cortical impact, rhPRG4 was administered intravenously to test rats at an approximate dose of 2.5 mg/Kg. Normal saline (0.9% NaCl) was administered intravenously to control rats. One day later, brains were harvested and the samples of the cerebral cortex surrounding the post-traumatic lesion were analyzed using Western blotting.

whole citrated blood [3] = test: Lubricin alone, inflammatory cytokines in whole blood; assay type: cell-based, human; settings: lubricin 0.57 mg/mL, 60 minutes; versus saline control
Method: Utilizing the same approach the effect of lubricin on the generation of inflammatory cytokines in whole blood was also studied using similar experimental settings. In these studies the effect of lubricin (0.57 mg/mL) was studied by supplementing it to the whole citrated blood drawn from the normal healthy volunteers. The samples were profiled for inflammatory cytokine levels along with a saline control in samples incubated for 60 minutes. Whole blood was centrifuged to obtain plasma which was profiled for various inflammatory cytokines using high sensitivity cytokine assay.

[4] = Serum cytokine levels after DMM surgery and intraarticular lubricin; assay type: in vivo, rat; settings: single intraarticular dose 200 μg/kg seven days after DMM surgery; samples 3 weeks after dose; versus saline
Method: In order to determine if lubricin could modulate pro-inflammatory cytokine levels in vivo, a rat model was used. Nine rats were subject to surgery to destabilize the medial meniscus (DMM surgery). Seven days after surgery, each rat received a single intraarticular dose of lubricin of 200 μg/kg. Control rats received an injection of an equal volume of saline. Cytokine levels in serum samples taken from the […] were compared with […] who received surgery but no dose of lubricin post-surgery. Samples were drawn 3 weeks after the dose of lubricin was administered and analyzed using the Luminex Multiplex platform. The results are shown in FIG. 13 where the measured levels of EPO, IL-13, IL-10, IL-18, IL-1α, IL-2, MCSF, IL-1β, IL-4, IFN-γ, MIP-3α, GMCSF, IL-7, TNF-α, VEGF, MCP-1, IL-5, G-CSF, RANTES, IL-6, GRO, IL-17α, and IL-12p70 are shown. The levels of IL-18, MCSF, MCP-1, RANTES, and GRO were all reduced in rats receiving lubricin as compared to rats that were injected with saline alone.

[5] = approx. 2.5 mg/Kg intravenously, versus normal saline

With “rhPRG4: full-length recombinant human PRG4 (lubricin) glycoprotein produced by CHO-M cells (Lubris), Mr≅240 KDa” as the substance, how does the “IL-6, IL-8, IL-10, VEGF, TNF-α, IL-1β and EGF” value (whole blood; lubricin 0.57 mg/mL before TNF-α 100 mg/mL, 60 minutes at 37° C., versus TNF-α alone) read?
The value was “decrease”.

And the “decrease of the levels of cytokines” value (whole blood; lubricin 0.57 mg/mL, versus TNF-α alone)?
The value was 10-100%.

And the “TNF-α stimulated IFN-γ and TNF-α” value (whole blood; lubricin 0.57 mg/mL, versus stimulation in the absence of lubricin)?
The value was “most dramatic decrease”.

And the “IL-4, IL-6, IL-8, IL-10, VEGF, TNF-α, IL-1β, MCP-1 and EGF” value (whole citrated blood [1]; 60 minutes)?
The value was “decrease”.

And the “EGF, IL10, VEGF, MCP1, IL1b and TNF levels” value (whole citrated blood [1])?
Its value is “marked decrease”.

What about the “RA-FLS proliferation with IL-1β stimulation” value ([2]; IL-1β 20 ng/mL, treatment 40 and 80 μg/mL) of the same substance?
Its value is “significantly suppressed”.

What about the “RA-FLS proliferation with TNF-α stimulation” value ([2]; TNF-α 5 ng/mL, treatment 20, 40 and 80 μg/mL) of the same substance?
Its value is “significantly suppressed”.

What about the “down regulation of Galectin 3” value (traumatic brain injury; approx. 2.5 mg/Kg intravenously about one hour after injury, brains harvested one day later, versus normal saline) of the same substance?
The value was 74%.

And the “attenuation of post-traumatic synthesis of matrix metalloproteinase 9” value (traumatic brain injury; [5])?
The value was 94%.

What about the “inhibition of the conversion of pro-matrix metalloproteinase 2 to its enzymatically active form” value (traumatic brain injury; [5]) of the same substance?
The value was 64%.

What about the “reduction in the magnitude of post-traumatic influx of monocytes into the injured brain parenchyma” value (traumatic brain injury; approx. 2.5 mg/Kg intravenously, versus normal saline-treated rats) of the same substance?
Its value is 60%.

What about the “reduction of the permeability of the blood-brain barrier” value (traumatic brain injury; assessed by level of albumin in traumatized brain tissue, approx. 2.5 mg/Kg intravenously) of the same substance?
Its value is 80%.

And the “VEGF, IL8, IL6 and IL10” value (whole citrated blood [3])?
Its value is “most prominent decrease”.

What about the “production of IL-4, IL-6, IL-8, IL-10, VEGF, TNF-α, IL-1β, MCP-1 and EGF” value (whole citrated blood [3]) of the same substance?
Its value is “decrease”.

What about the “serum levels of IL-18, MCSF, MCP-1, RANTES and GRO” value [4] of the same substance?
Its value is “reduced”.
